The structures appear in SMILES notation. Structures can show the parent of a compound that is named as a salt.

For the experiment, the target named is adenosine A2A receptor (Homo sapiens, UniProt P29274). Briefly: A2A receptor agonist assay by the method of L. J. Murphree et al, Molecular Pharmacology 61, 455-462 (2002). In kind it is binding. The following applies: Mol. Pharmacol. 61, 455-462 (2002). An excerpt: Compounds of formula I and their pharmaceutically acceptable salts are useful as pharmaceuticals. In particular, they activate the adenosine A2A receptor, i.e. they act as A2A receptor agonists.
adenosine A2A receptor, sequence (P29274 whole entry): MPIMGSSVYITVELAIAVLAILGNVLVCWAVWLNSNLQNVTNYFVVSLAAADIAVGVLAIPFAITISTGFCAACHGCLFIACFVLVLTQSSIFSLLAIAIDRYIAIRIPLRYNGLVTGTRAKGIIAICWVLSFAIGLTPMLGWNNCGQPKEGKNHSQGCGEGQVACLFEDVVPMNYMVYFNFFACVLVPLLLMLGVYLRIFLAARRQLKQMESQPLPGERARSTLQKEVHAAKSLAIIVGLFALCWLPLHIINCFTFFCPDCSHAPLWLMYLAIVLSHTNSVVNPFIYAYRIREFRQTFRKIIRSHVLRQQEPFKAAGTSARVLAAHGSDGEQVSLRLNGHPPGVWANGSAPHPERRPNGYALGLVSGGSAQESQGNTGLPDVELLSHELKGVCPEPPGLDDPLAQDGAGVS
The compound `CS(=O)(=O)N[C@H]1C[C@@H](n2cnc3c(N)nc(Cl)nc32)[C@H](O)[C@@H]1O` [Example 1, N-[(1S,2R,3S,4R)-4-(6-Amino-2-chloropurin-9-yl)-2,3-dihydroxy-cyclopentyl]-methane-sulfonamide Trifluoroacetate] showed a Ki of 582 nM.

Take `CCC(=O)N[C@H]1C[C@@H](n2cnc3c(N)nc(NCCc4ccccc4)nc32)[C@H](O)[C@@H]1O` [Example 2, N-[(1S,2R,3S,4R)-4-(6-Amino-2-phenethlamino-purin-9-yl)-2,3-dihydroxy-cyclopentyl]-propionamide trifluoroacetate]: the affinity corresponds to a Ki of 18 nM.

`CCC(=O)N[C@H]1C[C@@H](n2cnc3c(NCC(c4ccccc4)c4ccccc4)nc(Cl)nc32)[C@H](O)[C@@H]1O` [Example 4, N-{(1S,2R,3S,4R)-4-[2-chloro-6-(2,2-diphenyl-ethylamino)purin-9-yl]-2,3-dihydroxy-cyclopentyl}-propionamide]: the inhibition constant Ki turned out to be 57 nM.

In turn, `CCCCC#Cc1nc(NCC(c2ccccc2)c2ccccc2)c2ncn(C3CC(NC(=O)CC)C(O)C3O)c2n1` [Example 6, N-{(1S,2R,3S,4R)-4-[6-(2,2-Diphenyl-ethylamino-2-hex-1-ynyl-purin-9-yl]-2,3-dihydroxy-cyclopentyl}-propionamide] yielded a Ki of 8 nM.

Regarding `O=C(N[C@H]1C[C@@H](n2cnc3c(NCC(c4ccccc4)c4ccccc4)nc(Cl)nc32)[C@H](O)[C@@H]1O)C1CC1` [Example 12, Cyclopropanecarboxylic acid {(1S,2R,3S,4R)-4-[2-chloro-6-(2,2-diphenyl-ethylamino)-purin-9-yl]-2,3-dihydroxy-cyclopentyl}-amide], the affinity, expressed as Ki, was 3 nM.

Compound `CCC(=O)N[C@H]1C[C@@H](n2cnc3c(NC(CC)CC)nc(Cl)nc32)[C@H](O)[C@@H]1O` [Example 14, N-{(1S,2R,3S,4R)-4-[2-chloro-6-(1-ethyl-propylamino)-purin-9-yl]-2,3-dihydroxy-cyclopentyl}-propionamide] registered a Ki of 690 nM. Compared with the last compound, the Ki is about 230-fold higher.

The compound `CCC(=O)N[C@H]1C[C@@H](n2cnc3c(NC(CC)CC)nc(NC4CCC(N)CC4)nc32)[C@H](O)[C@@H]1O` (stereo partly drawn) [Example 20, N-{(1S,2R,3 S,4R)-4-[2-(4-Amino-cyclohexylamino)-6-(1-ethyl-propylamino)-purin-9-yl]-2,3-dihydroxy-cyclopentyl}-propionamide] displayed a Ki of 8 nM. Compared with the last compound, the Ki is about 86-fold lower.

As to `CCC(=O)N[C@H]1C[C@@H](n2cnc3c(NCC(c4ccccc4)c4ccccc4)nc(N4CC[C@@H](NC(=O)N[C@@H]5CCNC5)C4)nc32)[C@H](O)[C@@H]1O` [Example 39, N-((1S,2R,3S,4R)-4-4-{6-(2,2-Diphenyl-ethylamino)-2-[(R)-3-((R)-3-pyrrolidin-3-yl)ureido)-pyrrolidin-1-yl]-purin-9-yl}-2,3-dihydroxy-cyclopentyl)-propionamide Trifluoroacetate], the Ki was 3 nM.

In turn, `CC(=O)N[C@H]1C[C@@H](n2cnc3c(NCC(c4ccccc4)c4ccccc4)nc(C(=O)NCCNC(=O)NC4CCN(c5ccccn5)CC4)nc32)[C@H](O)[C@@H]1O` [Example 42, 9-((1R,2S,3R,4S)-4-acetylamino-2,3-dihydroxy-cyclopentyl)-6-(2,2-diphenyl-ethylamino)-9H-purine-2-carboxylic acid {2-[3-(3,4,5,6-tetra-hydro-2H-[1,2′]bipyridinyl-4-yl)-ureido]-ethyl}-amide trifluoroacetate] showed a Ki of 2 nM.

`CCC(=O)N[C@H]1C[C@@H](n2cnc3c(NCc4cccc5ccccc45)nc(N4CC[C@@H](NC(=O)N[C@@H]5CCNC5)C4)nc32)[C@H](O)[C@@H]1O` [Example 55, N-((1S,2R,3S,4R)-2,3-Dihydroxy-4-{6-[(naphthalen-1-ylmethyl)-amino]-2-[(R)-3-((R)-3-pyrrolidin-3-ylureido)-pyrrolidin-1-yl]-purin-9-yl}-cyclopentyl)-propionamide Trifluoroacetate]: the affinity corresponds to a Ki of 4 nM. Against the preceding compound, the Ki is about 2-fold higher.

Regarding `CCC(=O)N[C@H]1C[C@@H](n2cnc3c(NCCC(c4ccccc4)c4ccccc4)nc(NCCc4cn(CC)cn4)nc32)[C@H](O)[C@@H]1O` [Example 61, N-{(1S,2R,3S,4R)-4-(6-(3,3-diphenyl-propyl-amino)-2-[2-(1-ethyl-1H-imidazol-4-yl)-ethylamino]-purin-9-yl}-2,3-dihydroxy-cyclopentyl)-propionamide trifluoroacetate], the Ki turned out to be 9 nM. Against the preceding compound, the Ki is about 2.2-fold higher.

Broadly, the Ki is a measure of affinity in units of concentration, obtained from inhibition or displacement. Read a high Ki as a looser hold on the target.

The values are drawn from US20090105476A1, “Organic Compounds” (Novartis AG, priority 2006, published 2009).
